For 25 molecules, herbicidal activity results are on record in patent publication US9549558B2, “Herbicidal azines” (BASF SE, priority 2012, dated 2017).

Common to all, as to assay type: in vivo
In assay [1] the test system is ABUTH (Abutilon theophrasti). The experiment in a line: greenhouse post-emergence herbicidal test. From the text: (§1) The culture containers used were plastic flowerpots containing loamy sand with approximately 3.0% of humus as the substrate. The seeds of the test plants were sown separately for each species.
(§2) For the post-emergence treatment, the test plants were first grown to a height of 3 to 15 cm, depending on the plant habit, and only then treated with the active ingredients which had been suspended or emulsified in water. For this purpose, the test plants were either sown directly and grown in the same containers, or they were first grown separately as seedlings and transplanted into the test containers a few days prior to treatment.
(§3) Depending on the species, the plants were kept at 10-25° C. or 20-35° C., respectively.
(§4) The test period extended over 2 to 4 weeks. During this time, the plants were tended, and their response to the individual treatments was evaluated.
(§5) Evaluation was carried out using a scale from 0 to 100. 100 means no emergence of the plants, or complete destruction of at least the aerial moieties, and 0 means no damage, or normal course of growth. A moderate herbicidal activity is given at values of at least 60, a good herbicidal activity is given at values of at least 70, and a very good herbicidal activity is given at values of at least 85.
(§6) The plants used in the greenhouse experiments were of the following species: […]

Assay [2] has as its system CHEAL (Chenopodium album). The experiment in a line: greenhouse post-emergence herbicidal test.
From the text: as §1, §2, §3, §4, §5, §6

Assay [3] concerns CAPBP (Capsella bursa-pastoris). Nature of the assay: greenhouse pre-emergence herbicidal test. Particulars: CAPBP.
From the text: as §1
(§7) For the pre-emergence treatment, the active ingredients, which had been suspended or emulsified in water, were applied directly after sowing by means of finely distributing nozzles. The containers were irrigated gently to promote germination and growth and subsequently covered with transparent plastic hoods until the plants had rooted. This cover caused uniform germination of the test plants, unless this had been impaired by the active ingredients.
as §3, §4, §5, §6

The subject of a further assay is STEME (Stellaria media). Nature of the assay: greenhouse pre-emergence herbicidal test.
From the text: as §1, §7, §3, §4, §5, §6

The test system of a further assay is VIOAR (Viola arvensis). Nature of the assay: greenhouse pre-emergence herbicidal test.
From the text: as §1, §7, §3, §4, §5, §6

Assay [4] deals with POLCO (Polygonum convolvulus). Nature of the assay: greenhouse post-emergence herbicidal test.
From the text: as §1, §2, §3, §4, §5, §6

Assay [5] deals with AMARE (Amaranthus retroflexus). The experiment in a line: greenhouse post-emergence herbicidal test.
From the text: as §1, §2, §3, §4, §5, §6

For assay [6], the system named is AMARE (Amaranthus retroflexus). The experiment in a line: greenhouse pre-emergence herbicidal test. The following applies: 1000 g/ha. The source says:
The seeds of the test plants were sown separately for each species. For the pre-emergence treatment, the active ingredients, which had been suspended or emulsified in water, were applied directly after sowing by means of finely distributing nozzles. The containers were irrigated gently to promote germination and growth and subsequently covered with transparent plastic hoods until the plants had rooted. This cover caused uniform germination of the test plants, unless this had been impaired by the active ingredients. Depending on the species, the plants were kept at 10-25° C. or 20-35° C., respectively. The test period extended over 2 to 4 weeks. During this time, the plants were tended, and their response to the individual treatments was evaluated. […] A moderate herbicidal activity is given at values of at least 60, a good herbicidal activity is given at values of at least 70, and a very good herbicidal activity is given at values of at least 85. The plants used in the greenhouse experiments were of the following species: [table]

The subject of assay [7] is ECHCG (Echinocloa crus-galli). Nature of the assay: greenhouse pre-emergence herbicidal test. Particulars: 1000 g/ha.
From the text: as §1, §7, §3, §4, §5, §6

The subject of a further assay is SETFA (Setaria faberi). Nature of the assay: greenhouse pre-emergence herbicidal test. The following applies: 1000 g/ha.
From the text: as §1, §7, §3, §4, §5, §6

Turning to `CC(F)(F)c1nc(N)nc(Nc2c(F)c(F)cc(F)c2F)n1` [Example 8], the herbicidal activity result in assay [1] (0.062 kg/ha) and in assay [2] (0.062 kg/ha) was “very good (a very good herbicidal activity is given at values of at least 85)” throughout.
As to `CC(C)(C)c1nc(N)nc(Nc2c(F)ccc(Cl)c2F)n1` [Example 81], the herbicidal activity entry (in [3] (125 g/ha); in the assay with STEME (Stellaria media) (125 g/ha); in the assay with VIOAR (Viola arvensis) (125 g/ha)) was “very good (a very good herbicidal activity is given at values of at least 85)” each time.
For `CC(F)c1nc(N)nc(Nc2c(F)cc(Br)cc2F)n1` (centres unmarked) [Example 19], in the assay with VIOAR (Viola arvensis) (0.125 kg/ha), the herbicidal activity result was “good (a good herbicidal activity is given at values of at least 70)”.
Take `CC(F)c1nc(N)nc(Nc2c(F)c(F)cc(F)c2F)n1` (centres unmarked) [Example 17]: the herbicidal activity entry in assay [1] (0.125 kg/ha) and in assay [4] (0.125 kg/ha) was “very good (a very good herbicidal activity is given at values of at least 85)” throughout.
`Cc1ccc(F)c(Nc2nc(N)nc(C(C)(C)F)n2)c1F` [Example 40]: the herbicidal activity entry in assay [5] (0.031 kg/ha) and in assay [2] (0.031 kg/ha) was “very good (a very good herbicidal activity is given at values of at least 85)” in each case.
As for `CC(C)(F)c1nc(N)nc(Nc2cc(F)cc(F)c2)n1` [Example 25], the herbicidal activity entry with VIOAR (Viola arvensis) (0.125 kg/ha) is recorded as “very good (a very good herbicidal activity is given at values of at least 85)”.
Consider `Nc1nc(C2CC2)nc(N(C(=O)C2CC2)c2c(F)c(F)cc(F)c2F)n1` [Example 285], for which the herbicidal activity result in assay [5] (62 g/ha) is “very good (a very good herbicidal activity is given at values of at least 85)”; in [2] (62 g/ha) it was “good (a good herbicidal activity is given at values of at least 70)”.
With `Nc1nc(Nc2c(F)c(F)c(Br)c(F)c2F)nc(C2CCCCC2)n1` [Example 209], the herbicidal activity result in assay [3] (250 g/ha) is “good (a good herbicidal activity is given at values of at least 70)”; in the assay on STEME (Stellaria media) (250 g/ha) it was “very good (a very good herbicidal activity is given at values of at least 85)”; in the assay with VIOAR (Viola arvensis) (250 g/ha), “good (a good herbicidal activity is given at values of at least 70)”.
As to `CC(C)(Cl)c1nc(N)nc(Nc2c(F)ccc(Cl)c2F)n1` [Example 108], the herbicidal activity entry (in [3] (250 g/ha); with STEME (Stellaria media) (250 g/ha); in the assay with VIOAR (Viola arvensis) (250 g/ha)) was “very good (a very good herbicidal activity is given at values of at least 85)” each time.
For `CC(C)c1nc(N)nc(Nc2c(F)c(F)cc(F)c2F)n1` [Example 6], the results for the herbicidal activity entry in assay [5] (0.031 kg/ha) and in [4] (0.031 kg/ha) were “very good (a very good herbicidal activity is given at values of at least 85)” and “good (a good herbicidal activity is given at values of at least 70)”, respectively.
Turning to `Nc1nc(Nc2c(F)c(F)c(Br)c(F)c2F)nc(C2CCCC2)n1` [Example 210], the herbicidal activity entry (in assay [3] (250 g/ha); in the assay with STEME (Stellaria media) (250 g/ha); in the assay on VIOAR (Viola arvensis) (250 g/ha)) was “very good (a very good herbicidal activity is given at values of at least 85)” each time.
Consider `CC(C)(F)c1nc(N)nc(Nc2c(F)ccc(F)c2Cl)n1` [Example 36], for which the herbicidal activity result in assay [1] (0.062 kg/ha) and in assay [5] (0.062 kg/ha) was “very good (a very good herbicidal activity is given at values of at least 85)” throughout.
Turning to `COc1ccc(F)c(F)c1Nc1nc(N)nc(C(C)(C)F)n1` [Example 61], the herbicidal activity result in [5] (0.062 kg/ha) and in assay [4] (0.062 kg/ha) was “very good (a very good herbicidal activity is given at values of at least 85)” in each case.
Consider `COc1ccc(F)c(F)c1Nc1nc(N)nc(C(F)(F)F)n1` [Example 158], for which the herbicidal activity entry in [1] (1000 g/ha) was “very good (a very good herbicidal activity is given at values of at least 85)”.
For `Nc1nc(CC2CC2)nc(Nc2c(F)cc(F)cc2F)n1` [Example 141], the results for the herbicidal activity result (in [6]; in assay [7]; in the assay with SETFA (Setaria faberi)) were “very good (a very good herbicidal activity is given at values of at least 85)”, “good (a good herbicidal activity is given at values of at least 70)” and “very good (a very good herbicidal activity is given at values of at least 85)”, respectively.
As to `CC(C)(F)c1nc(N)nc(Nc2cc(F)c(F)c(F)c2)n1` [Example 29], the herbicidal activity entry in the assay on VIOAR (Viola arvensis) (0.125 kg/ha) is listed as “moderate (A moderate herbicidal activity is given at values of at least 60)”.
For the molecule `CC(C)(F)c1nc(N)nc(Nc2ccc(F)c(F)c2F)n1` [Example 26], the herbicidal activity entry was “good (a good herbicidal activity is given at values of at least 70)” in [3] (0.125 kg/ha) and “very good (a very good herbicidal activity is given at values of at least 85)” with VIOAR (Viola arvensis) (0.125 kg/ha).
`CC(C)(F)c1nc(N)nc(Nc2c(F)cccc2C#N)n1` [Example 38]: the herbicidal activity entry in assay [5] (0.125 kg/ha) and in assay [2] (0.125 kg/ha) was “very good (a very good herbicidal activity is given at values of at least 85)” each time.
Regarding `CC(F)(F)c1nc(N)nc(Nc2c(F)cc(F)cc2F)n1` [Example 138], the herbicidal activity entry (in assay [3] (125 g/ha); in the assay with STEME (Stellaria media) (125 g/ha); in the assay with VIOAR (Viola arvensis) (125 g/ha)) was “very good (a very good herbicidal activity is given at values of at least 85)” throughout.
Regarding `CC(C)(F)c1nc(N)nc(Nc2ccc(F)cc2F)n1` [Example 22], the herbicidal activity entry in the assay on VIOAR (Viola arvensis) (0.125 kg/ha) was “good (a good herbicidal activity is given at values of at least 70)”.
For the molecule `N#Cc1cccc(F)c1Nc1nc(N)nc(C(F)(F)F)n1` [Example 151], in [1] (500 g/ha), the herbicidal activity result is on record as “good (a good herbicidal activity is given at values of at least 70)”.
Take `Nc1nc(C2=CCCCC2)nc(N(C(=O)C2=CCCCC2)c2c(F)c(F)c(F)c(F)c2F)n1` [Example 303]: the herbicidal activity entry in [1] (500 g/ha) and in assay [5] (500 g/ha) was “good (a good herbicidal activity is given at values of at least 70)” throughout.
In the case of `CC(F)c1nc(N)nc(Nc2c(F)cccc2F)n1` (centres unmarked) [Example 12], the herbicidal activity entry (in assay [3] (0.125 kg/ha); with VIOAR (Viola arvensis) (0.125 kg/ha)) was “very good (a very good herbicidal activity is given at values of at least 85)” each time.
On to `Nc1nc(Nc2c(F)ccc(Cl)c2F)nc(C(F)(F)F)n1` [Example 126], for which the herbicidal activity entry in [1] (1000 g/ha) is on record as “good (a good herbicidal activity is given at values of at least 70)”; in assay [5] (1000 g/ha), “very good (a very good herbicidal activity is given at values of at least 85)”.
For `CC(C)(F)c1nc(N)nc(Nc2c(F)cc(F)cc2F)n1` [Example 28], the herbicidal activity result in assay [1] (0.125 kg/ha) and in assay [5] (0.125 kg/ha) was “very good (a very good herbicidal activity is given at values of at least 85)” each time.
